Laboratory results published in PubChem BioAssay (NCI).
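Following 48 hours of exposure in 96-well plates, responses at five concentrations were used to interpolate endpoints linearly. TGI marks complete inhibition of growth.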

Columns and labels:
Assay in all cases: NCI-60 cell line screen, 48 h
[1] = system: ACHN renal
[2] = system: CAKI-1 renal
[3] = system: COLO 205 colon
[4] = system: DMS 114 small cell lung
[5] = system: DMS 273 small cell lung
[6] = system: EKVX NSCLC
[7] = system: HCC-2998 colon
[8] = system: HCT-116 colon
[9] = system: HCT-15 colon
[10] = system: HOP-18 NSCLC
[11] = system: HOP-62 NSCLC
[12] = system: HT29 colon
[13] = system: IGROV1 ovarian
[14] = system: K-562 leukemia
[15] = system: KM12 colon
[16] = system: KM20L2 colon
[17] = system: LOX IMVI melanoma
[18] = system: LXFL 529 NSCLC
[19] = system: M14 melanoma
[20] = system: M19-MEL melanoma
[21] = system: MALME-3M melanoma
[22] = system: MOLT-4 leukemia
[23] = system: NCI-H226 lung
[24] = system: NCI-H23 lung
[25] = system: NCI-H460 lung
[26] = system: NCI-H522 lung
[27] = system: OVCAR-3 ovarian
[28] = system: OVCAR-4 ovarian
[29] = system: OVCAR-5 ovarian
[30] = system: OVCAR-8 ovarian
[31] = system: RPMI-8226 leukemia
[32] = system: RXF 393 renal
[33] = system: SF-268 CNS
[34] = system: SF-295 CNS
[35] = system: SK-MEL-2 melanoma
[36] = system: SK-MEL-28 melanoma
[37] = system: SN12C renal
[38] = system: SNB-19 CNS
[39] = system: SNB-78 CNS
[40] = system: SR leukemia
[41] = system: SW-620 colon
[42] = system: TK-10 renal
[43] = system: U251 CNS
[44] = system: UACC-62 melanoma
[45] = system: UO-31 renal
[46] = system: XF 498 CNS
[47] = system: 786-0 renal
[48] = system: A498 renal
[49] = system: A549 NSCLC
[50] = system: CCRF-CEM leukemia
[51] = system: DLD-1 colon
[52] = system: HL-60(TB) leukemia
[53] = system: RXF-631 renal
[54] = system: SF-539 CNS
[55] = system: SK-MEL-5 melanoma
[56] = system: SK-OV-3 ovarian
[57] = system: SNB-75 CNS
[58] = system: UACC-257 melanoma

Measured: TGI

O=C(c1ccccc1)c1nc2ccc(Cl)cc2c2c1CCCO2
> 100 µM: [1] | [2] | [3] | [4] | [5] | [6] | [7] | [8] | [9] | [10] | [11] | [12] | [13] | [14] | [15] | [16] | [17] | [18] | [19] | [20] | [21] | [22] | [23] | [24] | [25] | [26] | [27] | [28] | [29] | [30] | [31] | [32] | [33] | [34] | [35] | [36] | [37] | [38] | [39] | [40] | [41] | [42] | [43] | [44] | [45] | [46]

COC(=O)C(C(=O)C(=O)Nc1cccc([N+](=O)[O-])c1)c1nc2ccc([N+](=O)[O-])cc2[nH]c1=O (stereo unspecified)
> 100 µM: [47] | [48] | [49] | [1] | [2] | [50] | [3] | [51] | [4] | [5] | [6] | [7] | [8] | [9] | [52] | [10] | [11] | [12] | [13] | [14] | [15] | [16] | [17] | [18] | [19] | [20] | [21] | [22] | [23] | [24] | [25] | [26] | [27] | [28] | [29] | [30] | [32] | [53] | [33] | [34] | [54] | [35] | [36] | [55] | [56] | [37] | [38] | [57] | [39] | [40] | [41] | [42] | [43] | [58] | [44] | [45] | [46]

CN(C)c1snc2c1c(=O)n(C)c(=O)n2C
> 100 µM: [47] | [48] | [49] | [1] | [2] | [50] | [3] | [51] | [4] | [5] | [6] | [7] | [8] | [9] | [52] | [10] | [11] | [12] | [13] | [14] | [16] | [17] | [18] | [20] | [21] | [22] | [23] | [24] | [25] | [26] | [27] | [28] | [29] | [30] | [31] | [53] | [33] | [34] | [54] | [35] | [36] | [55] | [56] | [37] | [38] | [57] | [41] | [42] | [43] | [58] | [44] | [45] | [46]
